# Where “and” joins values, the source holds several entries; their conditions need not be identical. Equal entries are not always repeated. Where no end group is shown, it is not given here. The star is where a group is joined. FITC = O=C1OC2(c3ccc(O)cc3Oc3cc(O)ccc32)c2ccc(NC(=S)*)cc21; Ahx = NCCCCCC(=O)O
# T1: ligand binding domain (LBD) of the human RARα (residues 176-421) (human, UniProt P10276 176-421)
# T1 construct: also called RARα LBD; retinoic acid receptor alpha; source: E. coli BL21(DE3) RIL, purified (Ni-NTA, ULP1 cleavage, subtractive Ni-NTA, Superdex 200); not shown: His6-SUMO, N-terminal, cleaved
# T1 sequence (looked up): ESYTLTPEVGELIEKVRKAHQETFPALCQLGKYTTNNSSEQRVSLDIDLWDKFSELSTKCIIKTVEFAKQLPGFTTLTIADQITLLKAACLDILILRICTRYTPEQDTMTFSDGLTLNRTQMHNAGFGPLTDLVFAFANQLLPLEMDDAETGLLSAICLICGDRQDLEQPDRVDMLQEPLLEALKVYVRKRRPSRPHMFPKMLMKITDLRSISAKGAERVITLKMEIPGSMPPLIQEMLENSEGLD
# Tests used:
# NIH3T3 cells = assay: Microarray transcriptional changes; type: cell-based, mouse; details: NIH3T3; 20μM for 24 h
# Experimental: Total RNA of the treated cells was extracted using TRIzol (Invitrogen) and purified with RNeasy chromatography (Qiagen). Cy3-labeled RNA (0.6 μg) from each condition was hybridized to Agilent Mouse 8x60K. Data were processed using the oligo package and normalized using Robust Multiarray Average (RMA) method. […] Pathway analysis was performed using the STRING database ([…]).
# rd10 mice = assay: rd10 mice, single intravitreal injection, retina histology; type: in vivo, mouse; details: rd10 mice; individual values and Mean CA77
# Experimental: C57BL/6 J mice wild-type (WT) and homozygous for the Pde6 mutation (rd10 mouse model of retinal degeneration) were obtained from The Jackson Laboratory and experiments were performed at the age indicated in each part of the study. C57BL/6 KFERQ-Dendra mice were generated by back-crossing FVB KFERQ-Dendra mice with wild-type C57BL/6 mice for 8 generations. Both male and female animals were used in this study in equally distribution groups. However, results from both sexes were pooled, because of absence of significant differences in any of the parameters analyzed after statistical analysis with a mixed model of two-way ANOVA sex and treatment as independent variables and the corresponding measure as dependent variable. All animals were housed in a barrier-controlled facility (19–23 °C 30–60% relative humidity; 12 h light/dark cycle) with ad libitum access to standard chow pellets (protein 19 gm%/carbohydrate 67 gm%/fat 4 gm%) and water. For animal administration of CA compounds, a formula containing 30% PEG 400 (Sigma, #8.0745), 65% of 5% glucose solution, 5% Tween 80 (Sigma, #P1754) was used to dissolve them. CA compounds were prepared freshly by adding 5% DMSO and sonicating for 1 h. Treatment of KFERQ-Dendra mice with the CA compounds was done at 4 months of age by i.p. daily injection of 30 mg/kg bw or vehicle for three consecutive days and tissues collected 6 h after the last injection. In the case of rd10 mice, animals were daily injected from P18 to P25 with CA77 (40 mg/kg bw). In the case of intravitreal administration, a single intravitreal injection was applied at P18 with CA77 (40 µM) in DMSO/PBS and the contralateral eye was injected with PBS and DMSO at same concentration. At P26, mice were sacrificed and eyes fixed overnight with 4% PFA (Sigma, #P6148) in PBS at 4 °C for immunofluorescence or retinas dissected and immediately frozen for biochemistry. Distribution of animals in the vehicle or treatment group was done randomly. ICR (CD-1) outbred 3 months old male mice from ENVIGO were used for the pharmacokinetic studies (see pharmacokinetic section for housing and handling details). All animal studies and procedures complied with ethical regulations, were performed in accordance with the European Union guidelines and the ARVO Statement for the Use of Animals in Ophthalmic and Vision Research and were approved by the Institutional Animal Care and Use Committee at the Albert Einstein College of Medicine, the CSIC Bioetica Comite and approved by the Comunidad de Madrid, PROEX232/17.
# 12 μm cryosections and immunofluorescence in retinal sections[10] after orienting retinas with a dorsal mark, so comparisons were performed taking into account the precise retinal area. Primary antibodies used in this study were visual (rod) arrestin, cone arrestin, Opsin R/G, transducin, GFAP, N-CoR1. Sections were visualized by confocal microscopy (TCS SP5; Leica Microsystems).
# For ONL thickness quantification, DAPI images were taken at 40X in a fluorescence microscope Multidimensional system Leica AF6000 LX coupled to DMI600B microscope and Hamamatsu CCD 9100-O2 camera. At least two sections per animal were analyzed, preferably central sections. Eight images per retina equally distributed along the retina were acquired. Three measures were taken per image and ratio ONL/INL quantified with ImageJ tools. Leica LAS-X (3.7.4.23463) was used for image acquisition and ImageJ (v.2.1.0) was used for image processing. For OS length measures, fixed positions common to all pictures were considered and OS length was measured using ImageJ straight line tool.
# Eyes were enucleated, put in a plate with cold PBS and an incision was made under the microscope to let the fixative enter into the eye. […]
# N-CoR1 and RARα = target: T2, N-CoR1 and RARα (Mus musculus, UniProt P11416); assay: Streptavidin pulldown of biotin-CA, immunoblot for N-CoR1 and RARα; type: cell-based; details: NIH3T3, 10 μM for 24 h
# T2 construct: endogenous in cells; host or cells: NIH3T3
# [1] = test system: NIH3T3 cells stably expressing the mCherry-GFP-LC3 reporter; assay: Macroautophagy activity, mCherry-GFP-LC3 reporter; type: cell-based, mouse
# Experimental: Cells were transduced with a lentiviral vector expressing mCherry-GFP-LC3[35], fixed and flux determined as the conversion of dual fluorescence puncta (autophagosomes) into only red fluorescent puncta (autolysosomes). Flux was also measured by immunoblot for LC3 in cells incubated for 6 h with 20 mM NH4Cl/100 μM leupeptin, by discounting the intensity of LC3 in non-treated cells from that in cells treated with the inhibitors.
# [2] = target: T1, ligand binding domain (LBD) of the …; assay: fluorescence polarisation; FITC-N-CoR1 (5 nM) with serial two-fold dilutions of RARα LBD from 10 uM, without or with small molecules (10 uM: BMS, CA39, CA77); 20 mM Tris-HCl pH 7.5, 150 mM NaCl, 1 mM EDTA, 5 mM DTT, 10% glycerol; read at 30 min; details: both partners purified
# [3] = c0 = 2 (axis unlabelled; ANOVA calls row factor Time)
# T2 sequence (P11416 whole entry): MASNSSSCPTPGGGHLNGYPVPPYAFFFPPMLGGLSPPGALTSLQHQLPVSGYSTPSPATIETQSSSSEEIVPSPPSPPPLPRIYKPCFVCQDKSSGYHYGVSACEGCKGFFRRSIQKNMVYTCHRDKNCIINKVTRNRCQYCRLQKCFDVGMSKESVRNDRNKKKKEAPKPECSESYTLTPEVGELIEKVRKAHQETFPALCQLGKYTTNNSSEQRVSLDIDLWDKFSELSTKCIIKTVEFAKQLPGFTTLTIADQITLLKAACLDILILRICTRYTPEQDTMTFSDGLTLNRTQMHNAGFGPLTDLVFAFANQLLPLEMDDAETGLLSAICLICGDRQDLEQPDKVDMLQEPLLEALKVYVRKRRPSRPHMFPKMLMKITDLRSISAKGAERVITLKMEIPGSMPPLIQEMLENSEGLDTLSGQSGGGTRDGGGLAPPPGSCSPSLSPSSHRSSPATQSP
# T2 sequence (Q60974 whole entry partner): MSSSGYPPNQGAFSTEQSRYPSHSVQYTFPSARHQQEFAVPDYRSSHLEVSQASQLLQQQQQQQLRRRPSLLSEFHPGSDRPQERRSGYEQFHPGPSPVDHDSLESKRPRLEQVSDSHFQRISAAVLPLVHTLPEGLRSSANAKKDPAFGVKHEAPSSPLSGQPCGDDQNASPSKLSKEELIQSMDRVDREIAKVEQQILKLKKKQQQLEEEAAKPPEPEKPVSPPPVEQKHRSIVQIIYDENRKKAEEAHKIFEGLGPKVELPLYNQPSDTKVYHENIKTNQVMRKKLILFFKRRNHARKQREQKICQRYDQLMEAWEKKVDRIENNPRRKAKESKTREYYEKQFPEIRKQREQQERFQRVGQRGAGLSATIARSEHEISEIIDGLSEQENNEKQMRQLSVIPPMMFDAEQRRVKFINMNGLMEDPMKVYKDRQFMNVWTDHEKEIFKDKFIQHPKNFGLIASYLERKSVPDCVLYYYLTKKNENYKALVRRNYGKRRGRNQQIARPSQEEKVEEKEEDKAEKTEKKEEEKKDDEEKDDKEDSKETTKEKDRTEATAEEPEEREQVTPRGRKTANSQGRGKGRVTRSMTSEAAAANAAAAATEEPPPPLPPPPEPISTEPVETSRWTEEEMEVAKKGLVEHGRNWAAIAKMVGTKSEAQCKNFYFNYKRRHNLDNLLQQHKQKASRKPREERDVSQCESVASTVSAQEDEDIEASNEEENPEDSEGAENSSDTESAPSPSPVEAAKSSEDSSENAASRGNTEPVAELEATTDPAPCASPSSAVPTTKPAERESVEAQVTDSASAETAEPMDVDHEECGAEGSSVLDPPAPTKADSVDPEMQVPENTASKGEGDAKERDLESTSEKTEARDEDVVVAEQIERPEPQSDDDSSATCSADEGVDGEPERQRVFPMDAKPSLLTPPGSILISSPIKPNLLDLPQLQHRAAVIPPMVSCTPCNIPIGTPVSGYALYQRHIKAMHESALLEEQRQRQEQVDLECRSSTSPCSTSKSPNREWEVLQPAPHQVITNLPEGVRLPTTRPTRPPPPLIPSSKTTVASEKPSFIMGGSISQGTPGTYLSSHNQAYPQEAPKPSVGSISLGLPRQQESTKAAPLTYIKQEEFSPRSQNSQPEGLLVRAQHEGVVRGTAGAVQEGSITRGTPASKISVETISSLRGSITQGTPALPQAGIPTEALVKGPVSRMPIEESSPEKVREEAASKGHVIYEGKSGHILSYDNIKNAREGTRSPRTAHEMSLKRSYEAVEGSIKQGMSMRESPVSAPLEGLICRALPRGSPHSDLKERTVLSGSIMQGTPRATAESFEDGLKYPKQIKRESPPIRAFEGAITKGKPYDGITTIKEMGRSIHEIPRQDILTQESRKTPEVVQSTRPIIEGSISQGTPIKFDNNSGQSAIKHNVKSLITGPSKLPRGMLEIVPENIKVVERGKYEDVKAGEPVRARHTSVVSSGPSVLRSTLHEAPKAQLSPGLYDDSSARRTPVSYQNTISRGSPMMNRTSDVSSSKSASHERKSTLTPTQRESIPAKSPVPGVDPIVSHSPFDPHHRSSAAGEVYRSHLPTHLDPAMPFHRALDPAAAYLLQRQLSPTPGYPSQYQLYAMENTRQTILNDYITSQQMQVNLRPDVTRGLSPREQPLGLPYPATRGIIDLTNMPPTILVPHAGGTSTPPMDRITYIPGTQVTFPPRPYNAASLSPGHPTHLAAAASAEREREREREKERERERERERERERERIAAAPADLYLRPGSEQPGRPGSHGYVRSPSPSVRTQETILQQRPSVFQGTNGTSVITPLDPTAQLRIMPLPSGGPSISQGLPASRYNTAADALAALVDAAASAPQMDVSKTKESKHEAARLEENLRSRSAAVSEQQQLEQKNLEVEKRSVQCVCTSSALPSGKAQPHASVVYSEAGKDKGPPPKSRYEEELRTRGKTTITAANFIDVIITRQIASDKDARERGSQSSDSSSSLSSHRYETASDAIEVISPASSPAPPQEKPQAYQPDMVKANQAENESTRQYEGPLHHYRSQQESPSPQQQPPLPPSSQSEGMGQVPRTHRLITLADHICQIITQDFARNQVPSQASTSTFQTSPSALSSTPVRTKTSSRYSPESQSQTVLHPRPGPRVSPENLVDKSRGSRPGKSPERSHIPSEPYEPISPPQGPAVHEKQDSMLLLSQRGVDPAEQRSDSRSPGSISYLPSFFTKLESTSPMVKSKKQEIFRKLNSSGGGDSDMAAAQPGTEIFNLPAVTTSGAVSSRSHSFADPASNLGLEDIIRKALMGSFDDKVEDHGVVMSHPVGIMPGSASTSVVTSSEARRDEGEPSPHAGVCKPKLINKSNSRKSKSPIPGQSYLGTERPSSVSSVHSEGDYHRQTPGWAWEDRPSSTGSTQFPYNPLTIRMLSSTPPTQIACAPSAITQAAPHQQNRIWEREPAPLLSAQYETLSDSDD
molecule,measurement,setting,value
"CC1(C)CC=C(c2cnc3ccccc3c2)c2cc(C(=O)Nc3ccc(C(=O)O)cc3)ccc21 [BMS614, reference compound]",changes in the transcriptome,NIH3T3 cells,marked changes in the transcriptome
CC(=O)Nc1ccc(C2=Nc3ccc(Cl)cc3OC2)cc1 [CA 77],"Fig. 7a, retinal measurement by eccentricity, eccentricity 1",rd10 mice,0.2752 and 0.2828 and 0.2675 and 0.4954 and 0.393 and 0.3603 and 0.3938
same,"Fig. 7a, retinal measurement by eccentricity, eccentricity 2",rd10 mice,0.3254 and 0.2696 and 0.3495 and 0.2864 and 0.4558 and 0.3792 and 0.723
same,"Fig. 7a, retinal measurement by eccentricity, eccentricity 3",rd10 mice,0.3333 and 0.3595 and 0.4443 and 0.4969 and 0.8558 and 0.7642 and 0.8417
same,"Fig. 7a, retinal measurement by eccentricity, eccentricity 4",rd10 mice,0.6989 and 0.5535 and 0.938 and 1.0799 and 0.9103 and 0.9911 and 0.7623
same,"Fig. 7a, retinal measurement by eccentricity, eccentricity -1",rd10 mice,0.7616 and 0.2157 and 0.1911 and 0.3575 and 0.223 and 0.305
same,"Fig. 7a, retinal measurement by eccentricity, eccentricity -2",rd10 mice,0.2825 and 0.2446 and 0.25 and 0.4552 and 0.7496 and 0.1825 and 0.2782
same,"Fig. 7a, retinal measurement by eccentricity, eccentricity -3",rd10 mice,0.4178 and 0.4298 and 0.7568 and 0.9291 and 0.9244 and 0.276 and 0.3979
O=C(CCCCC1SCC2NC(=O)NC21)NCCCOCCOCCOCCCNC(=O)c1ccc(C2=Nc3ccc(Cl)cc3OC2)cc1 (stereo not shown) [biotinylated CA compound],co-immunoprecipitation of cellular RARα and N-CoR1,N-CoR1 and RARα,could be co-immunoprecipitated
"CO[C@H]1C[C@@H]2CC[C@@H](C)[C@@](O)(O2)C(=O)C(=O)N2CCCC[C@H]2C(=O)O[C@H]([C@H](C)C[C@@H]2CC[C@@H](O)[C@H](OC)C2)CC(=O)[C@H](C)/C=C(\C)[C@@H](O)[C@@H](OC)C(=O)[C@H](C)C[C@H](C)/C=C/C=C/C=C/1C [rapamycin, reference compound]",APG (Fig. S3e),[1]; [3],1.605
same,AUT (Fig. S3e),[1]; [3],1.965
same,AV (Fig. S3e),[1]; [3],3.57
same,APG (Fig. S3e),[1]; c0 = 5 (axis unlabelled),2.415
same,AUT (Fig. S3e),[1]; c0 = 5 (axis unlabelled),2.129
same,AV (Fig. S3e),[1]; c0 = 5 (axis unlabelled),4.544
same,APG (Fig. S3e),[1]; c0 = 10 (axis unlabelled),3.3128
same,AUT (Fig. S3e),[1]; c0 = 10 (axis unlabelled),3.752
same,AV (Fig. S3e),[1]; c0 = 10 (axis unlabelled),7.064
same,APG (Fig. S3e),[1]; c0 = 20 (axis unlabelled),5.184
same,AUT (Fig. S3e),[1]; c0 = 20 (axis unlabelled),4.731
same,AV (Fig. S3e),[1]; c0 = 20 (axis unlabelled),9.915
same,APG (Fig. S3e),[1]; c0 = 30 (axis unlabelled),4.9183
same,AUT (Fig. S3e),[1]; c0 = 30 (axis unlabelled),11.4046
same,AV (Fig. S3e),[1]; c0 = 30 (axis unlabelled),16.3229
"{FITC-Ahx}-RLITLADHICQIITQDFAR (peptide of nuclear receptor corepressor 1 (N-CoR1); also called FITC-N-CoR1; N-CoR1 peptide; source: synthetic peptide; bought: Genscript, purity > 95%) [fluorescein-tagged peptide of N-CoR1, FITC-Ahx-RLITLADHICQIITQDFAR]",binding result,[2],binds
